{"source": "patent US20240254096A1", "about": "“ULTRAVIOLET AND VISIBLE RADIATION ABSORBING COMPOUNDS” (ELKIMIA INC., priority 2021, published 2024)", "test": "SPF in vitro / UVA PF from UV transmittance through thin film on PMMA plates", "conditions": "for SPF in vitro mean / UV APF: 0.75 mg/cm^2; for SPF P / UV APF P: P (after irradiation, 800 J/m^2-eff)", "protocol": "For determining the SPF in vitro value, the protection performance of compounds according to certain embodiments of the present technology, against erythemally-effective UV radiation, largely confined to the UVB (290-320 nm) and short-wavelength UVA (320-340) region, was calculated from the measured in vitro transmittance. The in vitro UVA PF, the UVA protection (320-400 nm), was calculated from the measured in vitro transmittance after irradiation. The Critical Wavelength Value was defined as the wavelength at which the integral of the spectral absorbance curve reached 90% of the integral over the UV spectrum from 290 to 400 nm. It has been settled that this value must be equal or over 370 nm so as to classify the product as broad-spectrum. The study consisted in a comparative assay of non-treated plates against plates treated with each of the compounds and was based on the evaluation of UV-transmittance through a thin film of sunscreen sample spread on a roughened substrate, before an after exposure to a controlled dose of UV radiation from a UV source. A Kontron 933 spectrophotometer equipped with a UV source, an integrating sphere and a monochromatic light able to deliver a flow of energy between 290 and 400 nm was used. The transmittance values were measured at 1 nm intervals. A 10-4 precision laboratory balance was used to control deposited product weight. The irradiation was provided by Sunset Atlas CPS+ with standard filter. Temperature regulation of the equipment was done in the range of 25-35° C. A pre-irradiation dose of 4 times 200 J/m^2-eff (800 J/m^2-eff) was delivered. The substrate was the material to which the sunscreen product was applied. Polymethylmethacrylate (PMMA) plates were used and were roughened on one side to a three-dimensional surface topography of 5 micrometers. Each compound was weighted and applied evenly to the PMMA plate with a 2-phase spreading to achieve a 0.75 mg/cm^2 weight/surface ratio. Spreading was performed with a light spreading move for approximately 30 seconds followed by spreading with greater pressure for approximately 30 seconds. The resulting sample was left to equilibrate for 15 minutes in the dark at room temperature to ensure a self-leveling of the formula. To account for lack of photostability, a pre-irradiation was necessary. The pre-irradiation dose was 4 minimal erythema dose (MEDs), equivalent to 800 J/m^2-eff. Five measurements of spectral irradiance transmitted for each wavelength through the PMMA plate covered with the sunscreen product were obtained after pre-irradiation of the sunscreen product [P1( ), P2( ), P3( ), P4( ) and P5( )]. For each compound, mean absorbance values were determined from at least three individual PMMA plates. To validate the accuracy of the results, a control product with an established SPF of 18-20, Lot 11T0313 was tested simultaneously with the compounds. SPF in vitro was calculated for each plate using the Colipa 2011 equation.", "data": [{"smiles": "CCOC(=O)C1CSC2=C(CC(C)(C)C/C2=N\\c2ccc(/N=N/c3ccccc3)cc2)N1", "note": "(stereo not drawn) [Formula 15]", "values": [{"measurement": "SPF Change %", "result": 41, "unit": "%"}, {"measurement": "ΔSPF", "result": 8}, {"measurement": "SPF in vitro mean", "result": 28.31}, {"measurement": "UV APF", "result": 4.52}, {"measurement": "SPF P", "result": 27.34}, {"measurement": "UV APF P", "result": 4.49}]}, {"smiles": "CCOC(=O)C1CSC2=C(CC(C)(C)C/C2=N\\c2ccc(-c3ccccc3)cc2)N1", "note": "(stereo not drawn) [Formula 19]", "values": [{"measurement": "SPF Change %", "result": 35, "unit": "%"}, {"measurement": "ΔSPF", "result": 7}, {"measurement": "SPF in vitro mean", "result": 27.12}, {"measurement": "UV APF", "result": 4.07}, {"measurement": "SPF P", "result": 24.31}, {"measurement": "UV APF P", "result": 3.92}]}, {"smiles": "CCOC(=O)CNC1=C/C(=N/c2ccc(-c3ccccc3)cc2)CC(C)(C)C1", "note": "[Formula 31]", "values": [{"measurement": "SPF Change %", "result": 63, "unit": "%"}, {"measurement": "ΔSPF", "result": 13}, {"measurement": "SPF in vitro mean", "result": 32.75}, {"measurement": "UV APF", "result": 2.95}, {"measurement": "SPF P", "result": 30.52}, {"measurement": "UV APF P", "result": 2.88}]}, {"smiles": "CCOC(=O)CNC1=C/C(=N/c2ccc(/N=N/c3ccccc3)cc2)CC(C)(C)C1", "note": "[Formula 33]", "values": [{"measurement": "SPF Change %", "result": 81, "unit": "%"}, {"measurement": "ΔSPF", "result": 16}, {"measurement": "SPF in vitro mean", "result": 36.23}, {"measurement": "UV APF", "result": 4.26}, {"measurement": "SPF P", "result": 33.16}, {"measurement": "UV APF P", "result": 4.36}]}, {"smiles": "CCOC(=O)CNC1=C/C(=N/c2ccc(/N=N/c3ccc([N+](=O)[O-])cc3)cc2)CC(C)(C)C1", "note": "[Formula 35]", "values": [{"measurement": "SPF Change %", "result": 7, "unit": "%"}, {"measurement": "ΔSPF", "result": 2}, {"measurement": "SPF in vitro mean", "result": 21.53}, {"measurement": "UV APF", "result": 17.35}, {"measurement": "SPF P", "result": 17.94}, {"measurement": "UV APF P", "result": 14.64}]}, {"smiles": "COC(=O)C1CSC2=C(CC(C)(C)C/C2=N\\c2ccc(OC)cc2)N1", "note": "(stereo not drawn) [Formula 43]", "values": [{"measurement": "SPF Change %", "result": 4, "unit": "%"}, {"measurement": "ΔSPF", "result": 1}, {"measurement": "SPF in vitro mean", "result": 20.84}, {"measurement": "UV APF", "result": 4.02}, {"measurement": "SPF P", "result": 18.59}, {"measurement": "UV APF P", "result": 3.94}]}, {"smiles": "CCOC(=O)CNC1=CC(Nc2ccc(OC)cc2)CC(C)(C)C1", "note": "(stereo not drawn) [Formula 72]", "values": [{"measurement": "SPF Change %", "result": 18, "unit": "%"}, {"measurement": "ΔSPF", "result": 4}, {"measurement": "SPF in vitro mean", "result": 23.61}, {"measurement": "UV APF", "result": 2.85}, {"measurement": "SPF P", "result": 21.12}, {"measurement": "UV APF P", "result": 2.74}]}, {"smiles": "COc1ccc(NC2C=C(NCC(=O)O)CC(C)(C)C2)cc1", "note": "(stereo not drawn) [Formula 73]", "values": [{"measurement": "SPF Change %", "result": 61, "unit": "%"}, {"measurement": "ΔSPF", "result": 12}, {"measurement": "SPF in vitro mean", "result": 32.31}, {"measurement": "UV APF", "result": 16.05}, {"measurement": "SPF P", "result": 27.60}, {"measurement": "UV APF P", "result": 13.08}]}]}
